PMC11470957, “Principles of paralog-specific targeted protein degradation engaging the C-degron E3 KLHDC2” (Nature Communications, 2024)
Where “and” joins values, the source holds several entries; their conditions need not be identical. Equal entries are not always repeated. Where two headings read alike, the source gives them in different places.

Target: BRD4 (Homo sapiens, UniProt O60885)
Test: Western blot of BRD4 levels after cellular dosing
Conditions: for BRD4 (DMSO = 100): Rep1, Rep2

SMILES: COC(=O)CNC(=O)Cc1csc(-c2ccc3cccc(OCCN4CCN(C(=O)C[C@@H]5N=C(c6ccc(Cl)cc6)c6c(sc(C)c6C)-n6c(C)nnc65)CC4)c3c2)n1 [SJ46420]
- BRD4 level, Western blot quantification (DMSO = 100) (Fig S6g, SKBR3 Time course, 1 uM, 4hr): 75.4286 and 82.2353
- BRD4 level, Western blot quantification (DMSO = 100) (Fig S6g, SKBR3 Time course, 1 uM, 8hr): 78.3987 and 72.5234
- BRD4 level, Western blot quantification (DMSO = 100) (Fig S6g, SKBR3 Time course, 5 uM, 2hr): 109.415 and 100.234
- BRD4 level, Western blot quantification (DMSO = 100) (Fig S6g, SKBR3 Time course, 5 uM, 4hr): 59.7954 and 68.2545
- BRD4 level, Western blot quantification (DMSO = 100) (Fig S6g, SKBR3 Time course, 5 uM, 8hr): 59.199 and 52.2362
- BRD4 level, Western blot quantification (DMSO = 100) (Fig S6i, SKBR3, 5uM): 72.6081 and 84.277
- BRD4 level, Western blot quantification (DMSO = 100) (Fig S6i, U2OS, 5uM): 157.053 and 196.781
- BRD4 level, Western blot quantification (DMSO = 100) (Fig S6h, U2OS Time course, 5uM, 2hr): 126.968 and 100.342
- BRD4 level, Western blot quantification (DMSO = 100) (Fig S6h, U2OS Time course, 5uM, 4hr): 91.1641 and 100.137
- BRD4 level, Western blot quantification (DMSO = 100) (Fig S6h, U2OS Time course, 5uM, 8hr): 65.7267 and 72.5334
- BRD4 level, Western blot quantification (DMSO = 100) (Fig S6h, U2OS Time course, 5uM, 24hr): 56.1641 and 64.2352
- BRD4 level, Western blot quantification (DMSO = 100) (Fig S6d, U2OS KO/rescue Dose Response, 0.156 uM): 81.019 and 75.43
- BRD4 level, Western blot quantification (DMSO = 100) (Fig S6d, U2OS KO/rescue Dose Response, 0.313 uM): 75.0042 and 85.343
- BRD4 level, Western blot quantification (DMSO = 100) (Fig S6d, U2OS KO/rescue Dose Response, 0.625 uM): 69.2459 and 75.342
- BRD4 level, Western blot quantification (DMSO = 100) (Fig S6d, U2OS KO/rescue Dose Response, 1.25 uM): 72.3683 and 63.23
- BRD4 level, Western blot quantification (DMSO = 100) (Fig S6d, U2OS KO/rescue Dose Response, 2.5 uM): 72.6616 and 79.232
- BRD4 level, Western blot quantification (DMSO = 100) (Fig S6d, U2OS KO/rescue Dose Response, 5 uM): 65.5064 and 72.323
- BRD4 level relative to DMSO (100%) (MDA-MB-468, 2.5µM, 24 h, Fig S6b): 90 +/- 6.3%
- BRD4 level relative to DMSO (100%) (MDA-MB-468, 5µM, 24 h, Fig S6b): 78 +/- 4.3%
- BRD4 level relative to DMSO (100%) (MDA-MB-468, 10µM, 24 h, Fig S6b): 68 +/- 3.6%
- BRD4 level relative to DMSO (100%) (PC3, 0.16µM, 24 h, Fig S6e): 78 +/- 4.1%
- BRD4 level relative to DMSO (100%) (PC3, 0.31µM, 24 h, Fig S6e): 80 +/- 7.3%
- BRD4 level relative to DMSO (100%) (PC3, 0.63µM, 24 h, Fig S6e): 72 +/- 4.3%
- BRD4 level relative to DMSO (100%) (PC3, 1.3µM, 24 h, Fig S6e): 67 +/- 6.5%
- BRD4 level relative to DMSO (100%) (PC3, 2.5µM, 24 h, Fig S6e): 75 +/- 4.7%
- BRD4 level relative to DMSO (100%) (PC3, 5µM, 24 h, Fig S6e): 68 +/- 4.8%
- BRD4 level relative to DMSO (100%) (PC3, 10µM, 24 h, Fig S6e): 44 +/- 5.7%
- BRD4 (DMSO = 100) (PC3 cells, Log SJ46420 1.89279): 90.1763 and 93.433
- BRD4 (DMSO = 100) (PC3 cells, Log SJ46420 4): 40.11 and 48.232
- BRD4 level relative to DMSO (100%) (SKBR3, 1µM, 2hr, Fig S6g): 102 +/- 3.1%
- BRD4 level relative to DMSO (100%) (SKBR3, 1µM, 4hr, Fig S6g): 78 +/- 4.7%
- BRD4 level relative to DMSO (100%) (SKBR3, 1µM, 8hr, Fig S6g): 75 +/- 4.5%
- BRD4 level relative to DMSO (100%) (SKBR3, 5µM, 2hr, Fig S6g): 104 +/- 6.7%
- BRD4 level relative to DMSO (100%) (SKBR3, 5µM, 4hr, Fig S6g): 63 +/- 5.8%
- BRD4 level relative to DMSO (100%) (SKBR3, 5µM, 4hr, Fig S6j): 78 +/- 8.2%
- BRD4 level relative to DMSO (100%) (SKBR3, 5µM, 8hr, Fig S6g): 55 +/- 5.1%
- BRD4 level relative to DMSO (100%) (U2OS DC2KO (KLHDC2 knockout), 5µM, 24 h, Fig 6b): 99 +/- 12%
- BRD4 (DMSO = 100) (U2OS KO/Rescue cells, Log SJ46420 1.59176): 106.334 and 102.232
- BRD4 level relative to DMSO (100%) (U2OS KO/Rescue, 0.16µM, 24 h, Fig S6d): 92 +/- 9.3%
- BRD4 level relative to DMSO (100%) (U2OS KO/Rescue, 0.31µM, 24 h, Fig S6d): 83 +/- 16%
- BRD4 level relative to DMSO (100%) (U2OS KO/Rescue, 0.63µM, 24 h, Fig S6d): 69 +/- 12%
- BRD4 level relative to DMSO (100%) (U2OS KO/Rescue, 1µM, 24 h, Fig 6c): 90 +/- 4.1%
- BRD4 level relative to DMSO (100%) (U2OS KO/Rescue, 1µM, 24 h, Fig 6d): 75 +/- 10%
- BRD4 level relative to DMSO (100%) (U2OS KO/Rescue, 1.3µM, 24 h, Fig S6d): 46 +/- 15%
- BRD4 level relative to DMSO (100%) (U2OS KO/Rescue, 2.5µM, 24 h, Fig S6d): 26 +/- 2.1%
- BRD4 level relative to DMSO (100%) (U2OS KO/Rescue, 5µM, 24 h, Fig S6d): 3.4 +/- 0.69%
- BRD4 Dmax (U2OS KO/Rescue, 24 h dose): ~ 100%
- BRD4 level relative to DMSO (100%) (U2OS KO/Rescue, concentration not printed (line after 5µM), 24 h, Fig S6d): 0.51 +/- 0.21%
- BRD4 level relative to DMSO (100%) (U2OS, 5µM, 4hr, Fig S6h): 96 +/- 7.2%
- BRD4 level relative to DMSO (100%) (U2OS, 5µM, 8hr, Fig S6i): 176 +/- 28%
- BRD4 level relative to DMSO (100%) (U2OS, 5µM, 8hr, Fig S6h): 69 +/- 4.4%
- BRD4 level relative to DMSO (100%) (U2OS, 5µM, 24 h, Fig 6b): 74 +/- 4.1%
- BRD4 level relative to DMSO (100%) (U2OS, 5µM, 24hr, Fig S6h): 60 +/- 5.6%
- Dmax (U2OS, read-out: BRD4 Dmax, U2OS KO/Rescue, 24 h dose): 99.4%
- Dmax (read-out: BRD4 Dmax, PC3, 24 h dose): 59.5%
